Data on 8 molecules can be found in PubChem BioAssay (NCI).

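Protocol summary: plate cells (96-well), add compound at 5 concentrations, incubate 48 h, interpolate endpoints linearly. GI50: concentration for 50% inhibition of growth. The concentration for full growth arrest is given as TGI.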

Test systems include OVCAR-3 ovarian; A549 NSCLC; NCI-H460 lung; MDA-MB-435; MDA-MB-231 breast; SNB-19 CNS; DU-145 prostate; HCT-116 colon; CAKI-1 renal; HOP-92 NSCLC.
Holding throughout (assay): inhibition of tumour cell growth, NCI panel, 48 h

Regarding `COc1ccc(-n2c3c(c4c(CN5CCOCC5)c(O)ccc42)CCc2ccccc2C3=O)cc1`, the GI50 in the test with OVCAR-3 ovarian is 25.4 µM; in the test with A549 NSCLC it was greater than 100 µM; in the test on NCI-H460 lung, greater than 100 µM; in the test with MDA-MB-435, 12.1 µM; in the test on MDA-MB-231 breast, 52.1 µM; in the test on SNB-19 CNS, greater than 100 µM. Moreover, the GI50 with DU-145 prostate was 67.9 µM; in the test with HCT-116 colon it was greater than 100 µM; in the test with CAKI-1 renal, 37.8 µM; in the test with HOP-92 NSCLC it was 59.5 µM. In addition, the TGI in the test on OVCAR-3 ovarian was greater than 100 µM; with A549 NSCLC, greater than 100 µM; in the test on NCI-H460 lung, greater than 100 µM; with MDA-MB-435 it was 47.8 µM; in the test with MDA-MB-231 breast it was greater than 100 µM; in the test with SNB-19 CNS, greater than 100 µM. Besides, the TGI in the test with DU-145 prostate, in the test with HCT-116 colon, in the test on CAKI-1 renal and with HOP-92 NSCLC was greater than 100 µM throughout.

Regarding `CC(C)NC(=O)OCc1c(COC(=O)NC(C)C)c(-c2ccc(Cl)cc2)n2c1CCC2`, the GI50 with OVCAR-3 ovarian is 3.08 µM; in the test with A549 NSCLC it was 8.12 µM; in the test on NCI-H460 lung, 0.751 µM; in the test with MDA-MB-435, 5.04 µM; in the test on MDA-MB-231 breast it was 2.96 µM; in the test on SNB-19 CNS it was 4.65 µM. Further, the GI50 in the test with DU-145 prostate was 2.1 µM; in the test with HCT-116 colon, 3.54 µM; in the test with CAKI-1 renal it was 0.534 µM; in the test on HOP-92 NSCLC, 1.41 µM. The TGI came out at 10.3 µM with OVCAR-3 ovarian; 33.5 µM with A549 NSCLC; 14.4 µM with NCI-H460 lung; 19.8 µM with MDA-MB-435; 12.3 µM with MDA-MB-231 breast; 21.7 µM with SNB-19 CNS. The TGI worked out at 7.18 µM in the test on DU-145 prostate, 17.5 µM in the test with HCT-116 colon, 3.83 µM in the test on CAKI-1 renal and 5.09 µM in the test with HOP-92 NSCLC.

In the case of `O=C1c2c(nc3ccccc3c2-c2ccccc2)CN1Nc1ccccn1`, the TGI in the test with OVCAR-3 ovarian was greater than 100 µM; with A549 NSCLC, greater than 100 µM; in the test with NCI-H460 lung it was greater than 83.2 µM; in the test with MDA-MB-435, greater than 100 µM; in the test on MDA-MB-231 breast, greater than 100 µM; with SNB-19 CNS, greater than 100 µM. Besides, the TGI with DU-145 prostate is greater than 100 µM; in the test with HCT-116 colon, greater than 100 µM; in the test with CAKI-1 renal, greater than 86.9 µM; with HOP-92 NSCLC it was greater than 79.4 µM.

For the molecule `O=C(O)c1ccc(N/C=C2\C(=O)c3ccccc3OC2O)cc1O` (stereo not given), the GI50 was 8.41 µg/mL in the test with OVCAR-3 ovarian; 55.1 µg/mL in the test on A549 NSCLC; 32.3 µg/mL in the test on NCI-H460 lung; 20.2 µg/mL with MDA-MB-435; 22 µg/mL in the test on MDA-MB-231 breast; 18.4 µg/mL with SNB-19 CNS. For the same molecule, the GI50 was 22.7 µg/mL with DU-145 prostate, 17.9 µg/mL in the test on HCT-116 colon, 10.8 µg/mL with CAKI-1 renal and 4.11 µg/mL in the test with HOP-92 NSCLC. The TGI in the test with OVCAR-3 ovarian is 41.9 µg/mL; with A549 NSCLC, greater than 150 µg/mL; in the test on NCI-H460 lung, 78.3 µg/mL; in the test with MDA-MB-435, 68.4 µg/mL; with MDA-MB-231 breast, 54.6 µg/mL; in the test on SNB-19 CNS, 72.4 µg/mL. The TGI with DU-145 prostate came to 65.6 µg/mL; in the test with HCT-116 colon, 42.7 µg/mL; in the test with CAKI-1 renal, 32.5 µg/mL; in the test with HOP-92 NSCLC it was 36.5 µg/mL.

In the case of `NC1=NC(c2ccc(Cl)cc2)C2=C(N1)/C(=C/c1ccc(Cl)cc1)CCC2` (stereo not given), the GI50 in the test on OVCAR-3 ovarian was 5.76 µM; in the test with A549 NSCLC, 7.79 µM; in the test on NCI-H460 lung, 12.2 µM; in the test on MDA-MB-435, 2.87 µM; in the test on MDA-MB-231 breast it was greater than 29.6 µM; with SNB-19 CNS, 19.8 µM. The GI50 with DU-145 prostate is 7.91 µM; in the test on HCT-116 colon, 1.67 µM; with CAKI-1 renal, 13.6 µM; in the test with HOP-92 NSCLC, 14.2 µM. For the same molecule, the TGI in the test on OVCAR-3 ovarian was 15.4 µM; with A549 NSCLC, 35 µM; with NCI-H460 lung, 29.8 µM; in the test with MDA-MB-435, 12 µM; in the test with MDA-MB-231 breast it was greater than 56.1 µM; in the test with SNB-19 CNS, 99.3 µM. Further, the TGI in the test on DU-145 prostate is 29.6 µM; with HCT-116 colon, 3.22 µM; in the test on CAKI-1 renal it was greater than 96.7 µM; with HOP-92 NSCLC it was 40.5 µM.

As to `COc1cc(-c2nc3sc4c(c3c(=O)[nH]2)CCCCCC4)cc(OC)c1OC`, the GI50 in the test on OVCAR-3 ovarian was 0.922 µM; in the test with A549 NSCLC, 1.95 µM; in the test with NCI-H460 lung, 1.2 µM; in the test with MDA-MB-435 it was 0.115 µM; with MDA-MB-231 breast it was 1.07 µM; in the test with SNB-19 CNS it was 1.56 µM. The GI50 with DU-145 prostate was 1.78 µM; with HCT-116 colon, 1.21 µM; in the test on CAKI-1 renal, 1.23 µM; in the test on HOP-92 NSCLC it was 0.887 µM. For the same molecule, the TGI is 8.94 µM with OVCAR-3 ovarian; greater than 33.2 µM with A549 NSCLC; greater than 33.2 µM in the test with NCI-H460 lung; 0.611 µM in the test with MDA-MB-435; 29.5 µM in the test with MDA-MB-231 breast; greater than 33.2 µM in the test with SNB-19 CNS. Besides, the TGI with DU-145 prostate was greater than 33.2 µM; in the test on HCT-116 colon, 5.72 µM; in the test with CAKI-1 renal, greater than 33.2 µM; in the test on HOP-92 NSCLC it was 9.45 µM.

In the case of `C=CC1CC12C(=O)C1OC2(C)C2C(=O)c3c(O)ccc(O)c3C(=O)C12` (stereo not given), the GI50 in the test with OVCAR-3 ovarian was 1.13 µM; in the test with A549 NSCLC, 8.5 µM; in the test on NCI-H460 lung, 7.09 µM; in the test with MDA-MB-435, 4.44 µM; with MDA-MB-231 breast, 2.33 µM; in the test on SNB-19 CNS, 5.35 µM. Further, the GI50 is 3.91 µM with DU-145 prostate, 4.66 µM in the test with HCT-116 colon, 0.402 µM in the test on CAKI-1 renal and 2.69 µM with HOP-92 NSCLC. Further, the TGI in the test with OVCAR-3 ovarian was 3.83 µM; in the test on A549 NSCLC, 27.2 µM; in the test with NCI-H460 lung it was 23.7 µM; in the test on MDA-MB-435, 11.1 µM; in the test on MDA-MB-231 breast, 7.38 µM; in the test on SNB-19 CNS, 14.5 µM. The TGI in the test with DU-145 prostate was 13 µM; in the test on HCT-116 colon, 9.03 µM; in the test on CAKI-1 renal it was 1.65 µM; in the test on HOP-92 NSCLC, 6.59 µM.

On to `CCN1c2ccccc2C(Cl)(c2ccc(N(C)C)cc2)c2ccccc21`, for which the GI50 was 2.93 µM with OVCAR-3 ovarian; 4.34 µM in the test on A549 NSCLC; 7.77 µM with NCI-H460 lung; 3.34 µM with MDA-MB-435; 13.1 µM in the test on MDA-MB-231 breast; 5.44 µM in the test on SNB-19 CNS. Moreover, the GI50 in the test with DU-145 prostate is 5.5 µM; in the test on HCT-116 colon, 2.66 µM; in the test on CAKI-1 renal, 14.5 µM; in the test on HOP-92 NSCLC, 2.84 µM. Moreover, the TGI in the test on OVCAR-3 ovarian turned out to be 8.53 µM; in the test on A549 NSCLC, 24.5 µM; with NCI-H460 lung, 23.4 µM; with MDA-MB-435 it was 14 µM; with MDA-MB-231 breast it was 37.5 µM; in the test on SNB-19 CNS, 19.1 µM. Moreover, the TGI in the test with DU-145 prostate is 17.1 µM; in the test with HCT-116 colon, 10.3 µM; in the test with CAKI-1 renal, 49.4 µM; in the test on HOP-92 NSCLC it was 17 µM.
